Activity calls are given as the source filed them. No cut-off for these calls is given here.
How the values were obtained:
[1] = Cytotoxicity against mouse NIH3T3 cells assessed as survival rate at 10 uM measured after 24 hrs by CCK-8 assay relative to control; assay type: toxicity, cell-based; details: read-out: Survival
[2] = test system: NIH3T3; test: Anti-fibrotic activity in mouse NIH3T3 cells assessed as inhibition of TGFbeta-induced total collagen production at 10 uM measured after 48 hrs by Sirius Red Collagen Detection Kit relative to control; assay type: functional
[3] = test system: NIH3T3; test: Anti-fibrotic activity in mouse NIH3T3 cells assessed as inhibition of TGFbeta-induced total collagen production measured after 48 hrs by Sirius Red Collagen Detection Kit relative to control; assay type: functional, cell-based; details: NIH3T3, 48 h
[4] = test system: NIH3T3; test: Inhibition of TGFbeta1-induced proliferation of mouse NIH3T3 cells assessed as colony formation at 10 uM measured after 7 to 14 days by Crystal violet staining based assay; assay type: functional, cell-based; details: time 7-14 day
[5] = test system: L929; test: Anti-migratory activity in mouse L929 cells assessed as inhibition of TGFbeta1-induced migration at 10 uM measured after 24 hrs by Wound healing assay; assay type: functional, cell-based

O=C(CC/C=C/c1ccccc1)CCc1ccc(O)cc1
viability at 24 h, 10 µM [1]: -3.97%
inhibition at 10 µM [2]: 40.1%

CCCCCCCCC(=O)NCc1ccc(OC(C)=O)c(OC)c1
viability at 24 h, 10 µM [1]: 129%
inhibition at 10 µM [2]: 56.4%

COc1ccc(CCCCC(O)CCc2ccc(OC)c(O)c2)c(OC)c1 (configuration not stated)
IC50 [3]: 21900 nM
viability at 24 h, 10 µM [1]: 114%
inhibition at 10 µM [2]: 68.5%

CCCCC(=O)NCc1ccc(OC)c(OC)c1
viability at 24 h, 10 µM [1]: 86%
inhibition at 10 µM [2]: -2.64%

COc1ccc(CNC(=O)CC(C)C)cc1OC
viability at 24 h, 10 µM [1]: 88.2%
inhibition at 10 µM [2]: -41.7%

CC(=O)Oc1ccc(CNC(=O)CCCCc2ccccc2)cc1OC(C)=O
IC50 [3]: 1430 nM
viability at 24 h, 10 µM [1]: 129%
inhibition [4]: Active
inhibition at 10 µM [2]: 70.6%

CCCCCCCCC(=O)NCc1ccc(O)c(O)c1
viability at 24 h, 10 µM [1]: 90.5%
inhibition at 10 µM [2]: 61.4%

CCCCC(=O)NCc1ccc(OC(C)=O)c(OC(C)=O)c1
viability at 24 h, 10 µM [1]: 131%
inhibition at 10 µM [2]: 53%

CC(=O)Oc1ccc(/C=C/C(=O)Cc2ccccc2)cc1OC(C)=O
viability at 24 h, 10 µM [1]: 149%
inhibition at 10 µM [2]: 18.8%

COc1ccc(CCC(=O)CCCCc2cccc(O)c2)cc1O
viability at 24 h, 10 µM [1]: 95.7%
inhibition at 10 µM [2]: 60.6%

COc1cc(CNC(=O)CCCCCCC(C)C)ccc1O [DIHYDROCAPSAICIN]
IC50 [3]: 20400 nM
viability at 24 h, 10 µM [1]: 92.3%
inhibition at 10 µM [2]: 50%

CCCCCCCC(=O)NCc1ccc(OC(C)=O)c(OC(C)=O)c1
viability at 24 h, 10 µM [1]: 151%
inhibition at 10 µM [2]: 56.3%

C(=C\C=C\c1ccccc1)/C=C/Cc1ccccc1
viability at 24 h, 10 µM [1]: -2.34%
inhibition at 10 µM [2]: 57.5%

O=C(CCCCc1ccccc1)NCc1ccc(O)c(O)c1
viability at 24 h, 10 µM [1]: 118%
inhibition at 10 µM [2]: 65.2%

CCCCCC(=O)NCc1ccc(OC(C)=O)c(OC(C)=O)c1
viability at 24 h, 10 µM [1]: 138%
inhibition at 10 µM [2]: 50.9%

O=C(CCc1ccccc1)CC(O)CCc1ccccc1 (configuration not stated)
viability at 24 h, 10 µM [1]: 111%
inhibition at 10 µM [2]: 62.9%

COc1ccc(CCC(=O)CC/C=C/c2ccccc2)cc1
viability at 24 h, 10 µM [1]: 38.8%
inhibition at 10 µM [2]: 57.7%

COc1cc(CCC(O)CC/C=C/c2ccccc2)ccc1O (configuration not stated)
viability at 24 h, 10 µM [1]: 103%
inhibition at 10 µM [2]: 43.7%

CCCCC(=O)NCc1ccc(O)c(O)c1
viability at 24 h, 10 µM [1]: 123%
inhibition at 10 µM [2]: 54.2%

COc1ccc(CCC(/C=C/C=C/c2ccccc2)OC)cc1O (configuration not stated)
viability at 24 h, 10 µM [1]: 93.2%
inhibition at 10 µM [2]: 63%

CCCCCCCCCC(=O)NCc1ccc(OC)c(OC)c1
viability at 24 h, 10 µM [1]: 101%
inhibition at 10 µM [2]: -5.71%

COC(=O)c1ccc2c(c1)NC(=O)/C2=C(\Nc1ccc(N(C)C(=O)CN2CCN(C)CC2)cc1)c1ccccc1 [NINTEDANIB]
IC50 [3]: 270 nM
viability at 24 h, 10 µM [1]: 20.5%
inhibition [4]: Active
inhibition at 10 µM [2]: 89.5%

CCCCCC(=O)NCc1ccc(O)c(O)c1
viability at 24 h, 10 µM [1]: 118%
inhibition at 10 µM [2]: 60.2%

COc1cc(/C=C/C(=O)CC(O)/C=C/c2ccc(O)c(OC)c2)ccc1O (configuration not stated)
viability at 24 h, 10 µM [1]: 85%
inhibition at 10 µM [2]: 19.4%

OC(CCCCc1ccccc1)CCc1ccccc1 (configuration not stated)
IC50 [3]: 1570 nM
viability at 24 h, 10 µM [1]: 74.1%
Activity [5]: Active
inhibition at 10 µM [2]: 72.2%

COC(/C=C/C=C/c1ccccc1)CCc1ccc(O)cc1 (configuration not stated)
viability at 24 h, 10 µM [1]: 111%
inhibition at 10 µM [2]: 57.7%

Oc1ccc(/C=C/CCC(O)CCc2ccc(O)cc2)cc1 (configuration not stated)
viability at 24 h, 10 µM [1]: 132%
inhibition at 10 µM [2]: 60.9%

CC(=O)Oc1ccc(CCC(CCCCc2ccccc2)OC(C)=O)cc1OC(C)=O (configuration not stated)
viability at 24 h, 10 µM [1]: 111%
inhibition at 10 µM [2]: 51.9%

O=C(/C=C/c1ccc(O)cc1)CC(O)/C=C/c1ccc(O)cc1 (configuration not stated)
IC50 [3]: 4760 nM
viability at 24 h, 10 µM [1]: 101%
Activity [5]: Active
inhibition at 10 µM [2]: 72.8%

CCCCCC(=O)NCc1ccc(OC)c(OC)c1
viability at 24 h, 10 µM [1]: 85.8%
inhibition at 10 µM [2]: -9.02%

CCCCCCCC(=O)NCc1ccc(O)c(O)c1
viability at 24 h, 10 µM [1]: 133%
inhibition at 10 µM [2]: 58.1%

COc1ccc(OC)c(CCCCC(=O)CCc2ccc(OC)c(O)c2)c1
viability at 24 h, 10 µM [1]: 96.8%
inhibition at 10 µM [2]: 59.2%

O=C(CCCCc1ccccc1)CCc1ccc(O)cc1
viability at 24 h, 10 µM [1]: 117%
inhibition at 10 µM [2]: 49.7%

CC(=O)Oc1ccc(CNC(=O)CC(C)C)cc1OC(C)=O
viability at 24 h, 10 µM [1]: 124%
inhibition at 10 µM [2]: 11.2%

COc1cc(/C=C/C(O)CC(=O)/C=C/c2ccc(O)cc2)ccc1O (configuration not stated)
viability at 24 h, 10 µM [1]: 88.9%
inhibition at 10 µM [2]: -41.6%

CCCCCCCCC(=O)NCc1ccc(O)c(OC)c1 [NONIVAMIDE]
viability at 24 h, 10 µM [1]: 92%
inhibition at 10 µM [2]: 58.7%

COc1ccc(CCC(=O)CCCCc2cccc(O)c2)cc1
IC50 [3]: 2080 nM
viability at 24 h, 10 µM [1]: 91.1%
inhibition [4]: Active
inhibition at 10 µM [2]: 67.6%

Oc1ccc(CCC(O)CC/C=C/c2ccccc2)cc1O (configuration not stated)
viability at 24 h, 10 µM [1]: 131%
inhibition at 10 µM [2]: 56.6%

OC(CCc1ccccc1)CC(O)CCc1ccccc1 (configuration not stated)
viability at 24 h, 10 µM [1]: 101%
inhibition at 10 µM [2]: 46.9%

CC(C)CC(=O)NCc1ccc(O)c(O)c1
viability at 24 h, 10 µM [1]: 115%
inhibition at 10 µM [2]: 10.4%

O=C(CC/C=C/c1ccccc1)CCc1ccccc1
viability at 24 h, 10 µM [1]: -1.47%
inhibition at 10 µM [2]: 55.3%

CCCCCCCCC(=O)NCc1ccc(OC(C)=O)c(OC(C)=O)c1
viability at 24 h, 10 µM [1]: 137%
inhibition at 10 µM [2]: 66%

CCCCCCCCCC(=O)NCc1ccc(O)c(O)c1
viability at 24 h, 10 µM [1]: 121%
inhibition at 10 µM [2]: 64.8%

COc1ccc(CNC(=O)CCCCc2ccccc2)cc1OC
viability at 24 h, 10 µM [1]: 91.2%
inhibition at 10 µM [2]: -9.64%

CCCCCCCC(=O)NCc1ccc(OC)c(OC)c1
viability at 24 h, 10 µM [1]: 103%
inhibition at 10 µM [2]: 11.6%

O=C(CCCCc1ccccc1)CCc1ccccc1
viability at 24 h, 10 µM [1]: 94.1%
inhibition at 10 µM [2]: 58.8%

COc1cc(CNC(=O)CCCC/C=C/C(C)C)ccc1O [CAPSAICIN]
viability at 24 h, 10 µM [1]: 98.6%
inhibition at 10 µM [2]: 35.3%

CCCCCCCCCC(=O)NCc1ccc(OC(C)=O)c(OC(C)=O)c1
IC50 [3]: 2630 nM
viability at 24 h, 10 µM [1]: 141%
inhibition [4]: Active
inhibition at 10 µM [2]: 68.9%

OC(/C=C/C=C/c1ccccc1)CCc1ccccc1 (configuration not stated)
viability at 24 h, 10 µM [1]: 119%
inhibition at 10 µM [2]: 61.9%

Reference: ChEMBL document CHEMBL6096723, “Discovery of novel capsaicin analogs as TRPV1 inhibitors for the treatment of idiopathic pulmonary fibrosis” (Eur J Med Chem, 2025)
